The values below are quoted from earlier work in US6444192B1, “Diagnostic imaging of lymph structures” (The Regents of the University of California, priority 1999, dated 2002).

Like-named read-outs stand apart in the source and are kept apart here.

For this series the following is noted: 3 to 5 mL in the breast mass and surrounding tissue.

With `CCN(CC)c1ccc(C(=C2C=CC(=[N+](CC)CC)C=C2)c2cc(S(=O)(=O)[O-])ccc2S(=O)(=O)[O-])cc1.[Na+]` [isosulfan blue], the sentinel node detected is reported as 58% (first 87 cases) and 78% (next 87 cases).
